In test [1] the test system is erythroid progenitor cells (bone marrow cells). Nature of the test: burst-forming-units-erythroid (BFU-E) assay on bone marrow cells in culture. The test is classed as cell-based, C57BL/6JNarl mice. The conditions noted are these: 0.5~12.5 μg/ml, 9 days, with 2 U/ml Epo and 10 ng/ml IL-3; versus 0 concentration; FIG. 2. The method, then: To investigate the effect of “Compound A” on erythroid progenitor cells, burst-forming-units-erythroid (BFU-E) assay was conducted according to the procedures described in Corazza et al. (2004) and Jin et al. (2003) with modifications. Briefly, 6-week-old C57BL/6JNarl mice were purchased from the National Laboratory Animal Center (NLAC, Taiwan). Bone marrow cells were isolated from the mice, and the cell suspension was adjusted to about 8.3×10^4 cells/ml in α-MEM containing 15% (v/v) FBS (Gibco), 1% (v/v) BSA (Sigma-Aldrich), 0.8% (w/v) methylcellulose (Sigma-Aldrich), 10 μM 2-mercaptoethanol (Sigma-Aldrich), 2 U/ml Epo (Recormon Epoetin, Roche), and 10 ng/ml IL-3 (Sigma-Aldrich). Cells were plated at approximately 7.5×10^4 cells/well in 24-well plates (Falcon). They were incubated with different concentrations of Compound A (0, 0.1, 0.5, 2.5 and 12.5 μg/ml), respectively, for 9 days in a humidified 37° C. incubator containing 5% CO2-95% air. The colonies were stained with 3-(4,5-dimethylthiazol-2-yl)-2,5-diphenyl-tetrazolium bromide (50 m/50 μl/well) (MTT; Sigma-Aldrich). Plates were photographed while colonies of more than 50 cells were counted. Results were expressed as mean±S.E. (n=3). Statistical significance was evaluated by Student's t test (*P<0.05 and **P<0.01 versus control group (i.e., 0 concentration)).

Test [2] concerns cisplatin-induced acute renal failure animal model. Nature of the test: cisplatin-induced acute renal failure animal model: red blood cell count and blood urea nitrogen. In kind it is in vivo, C57BL/6JNarl mice. The method, then: The effects of Compound A treatment on cisplatin-induced acute renal failure animal model were investigated. C57BL/6JNarl mice (8-week-old) were purchased from the National Laboratory Animal Center (NLAC, Taiwan). Cisplatin (Sigma-Aldrich) was dissolved in normal saline (0.9% (w/v) sodium chloride, Sigma-Aldrich) at a concentration of 1 mg/ml, and injected into mice intraperitoneally (i.p.) according to the following schedule: day 1, 7 mg/kg; day 5, 6 mg/kg; and day 9, 6 mg/kg. For cisplatin-untreated normal mice group, normal saline injections of corresponding volumes were given i.p. in parallel. At day 13, serum samples were collected and blood urea nitrogen (BUN) contents were assayed. Cisplatin-injected mice with BUN levels more than 100 mg/dl and the cisplatin-untreated normal mice were further divided into 5 groups, 6 mice per group, for feeding with Compound A for 2 weeks: (1) Normal group: Mice were injected with normal saline and followed by feeding with a standard diet; (2) Control group: Mice were injected with cisplatin and followed by feeding with a standard diet; (3) Pomu 10 mg/kg/day group: Mice were injected with cisplatin and followed by feeding with Compound A at the dose of 10 mg/kg/day; (4) Pomu 30 mg/kg/day group: Mice were injected with cisplatin and followed by Compound A at the dose of 30 mg/kg/day; (5) Pomu 90 mg/kg/day group: Mice were injected with cisplatin and followed by Compound A treatment at the dose of 90 mg/kg/day. Blood samples were collected from the retro-orbital sinus of mice at day 0, 5, 10, 13, 18, 23 and 28. Red blood cell (RBC) concentrations were determined by complete blood cell count using Sysmex® Kx-21 hematology analyzer. Blood urea nitrogen (BUN) levels were determined by urease GLDH method (Urea FS, DiaSys). Results were expressed as mean±S.E. (n=5˜6). Statistical significance was evaluated by Student's t test (##P<0.01 versus normal group and **P<0.01 versus control group). […] The horizontal arrow in FIGS. 7 and 8 represents Compound A treatment (mg/Kg/day). […] The results were in agreement with the ability of the Compound A in enhancing erythropoiesis.

A further test concerns erythropoietin (Epo). Nature of the test: liver expression of Epo in cisplatin-induced acute renal failure animal model (PCR). In kind it is in vivo, mouse. The conditions noted are these: 30~90 mg/kg/day, day 28, versus untreated control group; FIG. 9. The method, then: (§1) The effects of Compound A treatment on cisplatin-induced acute renal failure animal model were investigated. C57BL/6JNarl mice (8-week-old) were purchased from the National Laboratory Animal Center (NLAC, Taiwan). Cisplatin (Sigma-Aldrich) was dissolved in normal saline (0.9% (w/v) sodium chloride, Sigma-Aldrich) at a concentration of 1 mg/ml, and injected into mice intraperitoneally (i.p.) according to the following schedule: day 1, 7 mg/kg; day 5, 6 mg/kg; and day 9, 6 mg/kg. For cisplatin-untreated normal mice group, normal saline injections of corresponding volumes were given i.p. in parallel. At day 13, serum samples were collected and blood urea nitrogen (BUN) contents were assayed. […]
(§2) At the end of the experiments described in EXAMPLE 6 (i.e., day 28), mice were sacrificed, kidney and liver tissues were removed, and bone marrow cells were isolated. […] The reverse-transcribed cDNA samples were analyzed by PCR using ABI GeneAmp™ system 2700 (Applied Biosystems) and the SYBR Green Master Mix kit (Applied Biosystems) using primers targeting toward mouse glyceraldehyde 3-phosphate dehydrogenase (GAPDH) (SEQ ID NOs: 5 and 6), erythropoietin (Epo) (SEQ ID NOs: 3 and 4) and hepatocyte growth factor (HGF) (SEQ ID NOs: 7 and 8) (Table 1). Results were expressed as relative index±S.E. (n=5˜6). […]

Test [3] deals with hepatocyte growth factor (HGF). Nature of the test: liver expression of HGF in cisplatin-induced acute renal failure animal model (PCR). The conditions noted are these: 10~90 mg/Kg/day, day 28; FIG. 10. In kind it is in vivo, mouse. The method, then: as §1, §2

Take `OC[C@H]1O[C@@H](Oc2c(O)cc(O)cc2/C=C/c2ccc(O)cc2)[C@H](O)[C@@H](O)[C@@H]1O` [Compound A, 2,3,5,4′-tetrahydroxystilbene 2-O-β-D-glucopyranoside]: in test [1], the “number of BFU-E colonies of bone marrow cells” value is “significantly increased the number of BFU-E colonies”. Moreover, in test [2] (30~90 mg/kg/day in feed for 2 weeks, time course, FIG. 5), the “number of red blood cells (RBCs)” value is “increased the number of red blood cells”. The “serum BUN levels” value in test [2] (30~90 mg/kg/day in feed for 2 weeks, time course, FIG. 6) is given as “decreased serum BUN levels”. Also, in test [2] (30~90 mg/kg/day, day 23, versus control group, FIG. 7), the “number of RBCs at day 23” value is “significantly increased the number of RBCs”. In addition, the “serum BUN levels at day 23” value in test [2] (30~90 mg/kg/day, day 23, versus control group, FIG. 8) is recorded as “decreasing serum BUN levels”. Moreover, the “expression of Epo in liver (relative index)” value with erythropoietin (Epo) is given as “significantly increased the expression of Epo in liver”. Further, the “expression of HGF in liver tissue (relative index)” value in test [3] was “enhanced the expression of HGF in liver tissue”.
